The experiment concerns immunoglobulin light chain protein WIL-FL T46L. In words: Differential scanning fluorimetry (thermal shift) assay. Format: binding. To be noted: Table A; temperature shift [Tm]compound-[Tm]vehicle; recombinant WIL-FL T46L. (DSF heats the sample and reads unfolding from a dye or from intrinsic fluorescence.)
With `Cc1cc(OC[C@H](C)c2ccccc2)cn2nc(C(=O)NC3COC4(CCOC4)C3)nc12` (stereo partly drawn) [Compound 303], the DSF result is on record as “***** (>2.5° C.=*****)”.

As to `Cc1cc(OC[C@H](C)c2ccccc2)cn2nc(C(=O)N3CCC(Cc4ccc(C(=O)O)nc4)CC3)nc12` [Compound 304], the DSF result is reported as “***** (>2.5° C.=*****)”.

In the case of `Cc1cc(OC[C@H](C)c2ccccc2)cn2nc(C(=O)NC3CCN(c4cccc(C(=O)O)n4)C3)nc12` (stereo partly drawn) [Compound 305], the DSF result is “***** (>2.5° C.=*****)”.

Consider `Cc1cc(OC[C@H](C)c2ccccc2)cn2nc(C(=O)NCC34COC(C3)C4)nc12` [Compound 306], for which the DSF entry is “***** (>2.5° C.=*****)”.

With `Cc1cc(OC[C@H](C)c2ccccc2)cn2nc(C(=O)NC3CCN(c4cccc(C(=O)O)n4)CC3)nc12` [Compound 307], the DSF result was “***** (>2.5° C.=*****)”.

On to `Cc1cc(OC[C@H](C)c2cccc(F)c2)cn2nc(C(=O)NC3CCN(c4ccnc(C(=O)O)c4)CC3)nc12` [Compound 308], for which the DSF result was “***** (>2.5° C.=*****)”.

Take `Cc1cc(OC[C@H](C)c2cccc(F)c2)cn2nc(C(=O)N3CC[C@@](C)(O)C3)nc12` [Compound 309]: the DSF result is recorded as “**** (>1.5-2.5° C.=****)”.

Regarding `Cc1cc(OC[C@H](C)c2cccc(F)c2)cn2nc(C(=O)NC3CC4(C3)CC(N3CC5C(C3)C5C(=O)O)C4)nc12` (stereo partly drawn) [Compound 310], the DSF entry is given as “***** (>2.5° C.=*****)”.

Regarding `Cc1cc(OC[C@H](C)c2ccccc2)cn2nc(C(=O)N3CCC4(CCN(c5cccc(C(=O)O)n5)C4)C3)nc12` (stereo partly drawn) [Compound 311], the DSF result is on record as “***** (>2.5° C.=*****)”.

Take `Cc1cc(OC[C@H](C)c2ccccc2)cn2nc(C(=O)O)nc12` [Compound 312]: the DSF entry is recorded as “**** (>1.5-2.5° C.=****)”.

Regarding `Cc1cc(OC[C@H](C)c2ccccc2)cn2nc(C(=O)NC3CC4(CC(O)C4)C3)nc12` (stereo partly drawn) [Compound 313], the DSF entry is listed as “***** (>2.5° C.=*****)”.

On to `Cc1cc(OC[C@H](C)c2ccccc2)cn2nc(C(=O)NC3CC4(C3)CC(N3CC5C(C3)C5C(=O)O)C4)nc12` (stereo partly drawn) [Compound 314], for which the DSF entry is “***** (>2.5° C.=*****)”.

Regarding `Cc1cc(OC[C@H](C)c2ccccc2)cn2nc(C(=O)NC3CCC(C)(O)C3)nc12` (stereo partly drawn) [Compound 315], the DSF result was “**** (>1.5-2.5° C.=****)”.

As for `Cc1cc(OC[C@H](C)c2ccccc2)cn2nc(C(=O)N3CCC(C)(O)C3)nc12` (stereo partly drawn) [Compound 316], the DSF entry was “**** (>1.5-2.5° C.=****)”.

In the case of `Cc1cc(OC[C@H](C)c2ccccc2)cn2nc(C(=O)NCC(C)(C)O)nc12` [Compound 317], the DSF entry was “***** (>2.5° C.=*****)”.

Consider `Cc1cc(OC[C@H](C)c2ccccc2)cn2nc(C(=O)N[C@@H]3CC[C@H]3O)nc12` [Compound 319], for which the DSF result is on record as “***** (>2.5° C.=*****)”.

For `Cc1cc(OC[C@H](C)c2ccccc2)cn2nc(C(=O)NC3CCN(c4ccnc(C(=O)O)c4)CC3)nc12` [Compound 320], the DSF entry was “***** (>2.5° C.=*****)”.

Regarding `Cc1cc(OC[C@H](C)c2ccccc2)cn2nc(C(=O)NC3CCN(c4ccnc(C(=O)O)c4)C3)nc12` (stereo partly drawn) [Compound 321], the DSF entry is recorded as “***** (>2.5° C.=*****)”.

With `Cc1cc(OC[C@H](C)c2ccccc2)cn2nc(C(=O)N[C@H]3[C@H]4CN[C@@H]3C4)nc12` [Compound 322], the DSF result is listed as “***** (>2.5° C.=*****)”.

Consider `Cc1cc(N2CC[C@](C)(c3ccccc3)C2)cn2nc(S(=O)(=O)NCC(C)(C)O)nc12` [Compound 323], for which the DSF entry is on record as “***** (>2.5° C.=*****)”.

As to `CNS(=O)(=O)c1nc2c(C)cc(N3CC[C@](C)(c4ccccc4)C3)cn2n1` [Compound 324], the DSF result is listed as “***** (>2.5° C.=*****)”.

As for `Cc1cc(N2CC[C@](C)(c3ccccc3)C2)cn2nc(S(=O)(=O)NC3CCNCC3)nc12` [Compound 325], the DSF result is reported as “***** (>2.5° C.=*****)”.

Turning to `Cc1cc(N2CC[C@](C)(c3ccccc3)C2)cn2nc(S(=O)(=O)NC3CCNC3)nc12` (stereo partly drawn) [Compound 326], the DSF result was “***** (>2.5° C.=*****)”.

Turning to `Cc1cc(N2CC[C@@](c3ccccc3)(C(F)F)C2)cn2nc(C(=O)NCC(C)(C)O)nc12` [Compound 327], the DSF result is given as “***** (>2.5° C.=*****)”.

With `CNC(=O)c1nc2c(C)cc(N3CC[C@](c4ccccc4)(C(F)F)C3)cn2n1` [Compound 328], the DSF result is given as “**** (>1.5-2.5° C.=****)”.

As to `CNC(=O)c1nc2c(C)cc(N3CC[C@@](c4ccccc4)(C(F)F)C3)cn2n1` [Compound 329], the DSF result was “***** (>2.5° C.=*****)”.

In the case of `Cc1cc(N2CC[C@](c3ccccc3)(C(F)F)C2)cn2nc(C(=O)NC3CCN(c4ccnc(C(=O)O)c4)CC3)nc12` [Compound 330], the DSF result is “**** (>1.5-2.5° C.=****)”.

On to `Cc1cc(N2CC[C@@](CO)(c3ccccc3)C2)cn2nc(C(=O)N3CC[C@@]4(CCN(c5cccc(C(=O)O)n5)C4)C3)nc12` [Compound 331], for which the DSF result was “** (>0.5-1 °C =**)”.

For the compound `Cc1cc(N2CC[C@](CO)(c3ccccc3)C2)cn2nc(C(=O)N3CC[C@@]4(CCN(c5cccc(C(=O)O)n5)C4)C3)nc12` [Compound 332], the DSF result is on record as “***** (>2.5° C.=*****)”.

For `CNC(=O)c1nn2cc(N3CC[C@](C)(c4ccccc4)C3)cc(C)c2c1COC` [Compound 333], the DSF entry is “***** (>2.5° C.=*****)”.

With `C[C@]1(c2ccccc2)CCN(c2cc(CO)c3nc(C(=O)N4CCC5(CCN(c6ccnc(C(=O)O)c6)C5)C4)nn3c2)C1` (stereo partly drawn) [Compound 334], the DSF result is recorded as “***** (>2.5° C.=*****)”.

`CNC(=O)c1nc2c(CN)cc(N3CC[C@](C)(c4ccccc4)C3)cn2n1` [Compound 335]: the DSF result is reported as “***** (>2.5° C.=*****)”.

`CNC(=O)c1nc2c(C(C)O)cc(N3CC[C@](C)(c4ccccc4)C3)cn2n1` (stereo partly drawn) [Compound 336]: the DSF entry is given as “***** (>2.5° C.=*****)”.

As to `CNC(=O)c1nc2c(C(C)C)cc(N3CC[C@](C)(c4ccccc4)C3)cn2n1` [Compound 337], the DSF entry is “**** (>1.5-2.5° C.=****)”.

Turning to `CNC(=O)c1nc2c(C#N)cc(N3CC[C@](C)(c4ccccc4)C3)cn2n1` [Compound 338], the DSF result is on record as “* (0-0.5° C.=*)”.

`CCc1cc(N2CC[C@](C)(c3ccccc3)C2)cn2nc(C(=O)NC)nc12` [Compound 339]: the DSF result is reported as “***** (>2.5° C.=*****)”.

In the case of `CC(C)(O)c1cc(N2CC[C@](C)(c3ccccc3)C2)cn2nc(C(=O)NC3CCN(c4cccc(C(=O)O)n4)CC3)nc12` [Compound 340], the DSF result is “***** (>2.5° C.=*****)”.

As for `CC(O)c1cc(N2CC[C@](C)(c3ccccc3)C2)cn2nc(C(=O)NC3CC4(C3)CC(N3CC5C(C3)C5C(=O)O)C4)nc12` (stereo partly drawn) [Compound 341], the DSF entry is “***** (>2.5° C.=*****)”.

Take `CC(O)c1cc(N2CC[C@](C)(c3ccccc3)C2)cn2nc(C(=O)NC3CCN(c4cccc(C(=O)O)n4)CC3)nc12` (stereo partly drawn) [Compound 342]: the DSF result is “***** (>2.5° C.=*****)”.

With `C[C@]1(c2ccccc2)CCN(c2cc(CO)c3nc(C(=O)N4CCC5(CCN(c6cccc(C(=O)O)n6)C5)C4)nn3c2)C1` (stereo partly drawn) [Compound 343], the DSF entry is “***** (>2.5° C.=*****)”.

Consider `Cc1nc(C2C3COC2(c2nc4c(CO)cc(N5CC[C@](C)(c6ccccc6)C5)cn4n2)C3)n[nH]1` (stereo partly drawn) [Compound 344], for which the DSF entry is reported as “***** (>2.5° C.=*****)”.

Consider `C[C@]1(c2ccccc2)CCN(c2cc(CN)c3nc(C(=O)N4CC[C@@]5(CCN(c6cccc(C(=O)O)n6)C5)C4)nn3c2)C1` [Compound 345], for which the DSF entry is listed as “***** (>2.5° C.=*****)”.

As for `C[C@]1(c2ccccc2)CCN(c2cc(CO)c3nc(C(=O)NC4CC5(CCC5N5CC6C(C5)C6C(=O)O)C4)nn3c2)C1` (stereo partly drawn) [Compound 346], the DSF result is given as “***** (>2.5° C.=*****)”.

With `C[C@@]1(c2ccccc2)CCN(c2cc(CO)c3nc(C(=O)N4CC5CN(c6cccc(C(=O)O)n6)CC5C4)nn3c2)C1` (stereo partly drawn) [Compound 347], the DSF result was “***** (>2.5° C.=*****)”.

`CNC(=O)c1nc2c(CNC(C)=O)cc(N3CC[C@](C)(c4ccccc4)C3)cn2n1` [Compound 348]: the DSF result is reported as “***** (>2.5° C.=*****)”.

As for `CCS(=O)(=O)NCc1cc(N2CC[C@](C)(c3ccccc3)C2)cn2nc(C(=O)NC)nc12` [Compound 349], the DSF result is given as “***** (>2.5° C.=*****)”.

As to `CC(C)(O)CNC(=O)c1nc2c(CO)cc(N3CC[C@](C)(c4ccccc4)C3)cn2n1` [Compound 350], the DSF result was “***** (>2.5° C.=*****)”.

With `CNC(=O)c1nc2c(CO)cc(N3CC[C@](C)(c4ccccc4)C3)cn2n1` [Compound 351], the DSF entry is reported as “***** (>2.5° C.=*****)”.

`C[C@]1(c2ccccc2)CCN(c2cc(CO)c3nc(C(=O)N[C@@H]4CCOC4)nn3c2)C1` [Compound 352]: the DSF entry is “***** (>2.5° C.=*****)”.

Consider `Cc1cc(N2CC[C@](C)(c3ccccc3)C2)cn2nc(C(=O)N3CCC4(CC3)COCC4N3CC4C(C3)C4C(=O)O)nc12` (stereo partly drawn) [Compound 353], for which the DSF entry was “***** (>2.5° C.=*****)”.

On to `Cc1cc(N2CC[C@](C)(c3ccccc3)C2)cn2nc(C(=O)NC3CC(N4CC5C(C4)C5C(=O)O)C3)nc12` (stereo partly drawn) [Compound 354], for which the DSF entry is “***** (>2.5° C.=*****)”.

In the case of `Cc1cc(N2CC[C@](C)(c3ccccc3)C2)cn2nc(C(=O)N3CCCC4(CC(N5CC6C(C5)C6C(=O)O)CO4)C3)nc12` (stereo partly drawn) [Compound 355], the DSF entry is given as “***** (>2.5° C.=*****)”.

`Cc1cc(N2CC[C@](C)(c3ccccc3)C2)cn2nc(C(=O)NC3CC4(C3)CC(N3CC5C(CC(=O)O)C5C3)C4)nc12` (stereo partly drawn) [Compound 356]: the DSF result is “***** (>2.5° C.=*****)”.

As to `COC(=O)CC1C2CN(C3CC4(CC(NC(=O)c5nc6c(C)cc(N7CC[C@](C)(c8ccccc8)C7)cn6n5)C4)C3)CC12` (stereo partly drawn) [Compound 357], the DSF result is “***** (>2.5° C.=*****)”.

For `Cc1cc(N2CC[C@](C)(c3ccccc3)C2)cn2nc(C(=O)NC3CC4(C3)CC(N3CCOC(C(=O)O)C3)C4)nc12` (stereo partly drawn) [Compound 358], the DSF entry is given as “***** (>2.5° C.=*****)”.

With `Cc1cc(N2CC[C@](C)(c3ccccc3)C2)cn2nc(C(=O)NC3CC4(C3)OCC4N3CCC(C(=O)O)CC3)nc12` (stereo partly drawn) [Compound 359], the DSF result is “***** (>2.5° C.=*****)”.

For the compound `COC(=O)C1CCN(C2COC23CC(NC(=O)c2nc4c(C)cc(N5CC[C@](C)(c6ccccc6)C5)cn4n2)C3)CC1` (stereo partly drawn) [Compound 360], the DSF result was “***** (>2.5° C.=*****)”.
